Here are results for 54 molecules from patent US8283358B2, “N-sulfonamido polycyclic pyrazolyl compounds” (Elan Pharmaceuticals, Inc., priority 2008, dated 2012).

One assay deals with T1, gamma-secretase (partially purified extract of IMR-32 cell membranes; substrate MBP-C125 Swe fusion protein, cleavage at the Aβ40 site) (Homo sapiens, UniProt P49768).
T1 construct: a partially purified extract of IMR-32 cell membranes as the gamma-secretase enzyme preparation; endogenous in cells; host or cells: IMR-32 cell membranes, partially purified extract
As to the kind of experiment: Gamma-secretase APP enzyme assay (Example A). As to conditions: class symbols; assay described in Example A; read-out: γAPP IC50. The format is biochemical. From the text:
The gamma-secretase APP enzyme assay was designed to measure the specific proteolytic cleavage of an APP substrate (MBP-C125 Swe fusion protein) at the Aβ40 site. […] This assay involved two steps beginning with the enzymatic reaction generating a cleavage product that was captured with an immobilized antibody specific for the neo-epitope Aβ40 site. The captured cleavage product was then detected in a sandwich ELISA assay with a biotinylated reporter antibody that is specific to Aβ(17-28). Streptavidin-linked alkaline phosphatase was then added that would generate a fluorescent signal proportional to the amount of cleavage product.
This warmed solution of BigCHAPS (N,N-Bis(3-D-gluconamidopropyl)cholamide) detergent was used to dissolve Brain Extract Type-V (lipid containing a minimum of 40% phosphatidylethanolamine) from Sigma (St. Louis, Mo.) to a concentration of 8 mg/ml. This solution containing BigCHAPS and lipid at 8 mg/ml is then diluted to 0.53 mg/ml lipid with a pre-warmed solution of Hepes and sodium chloride.
Gamma-secretase was then added to a 96-well micro-titre plate and then incubated with various concentrations of inhibitor for 30 minutes at 37° C. MBPC125 substrate was then added to initiate the reaction that would run for two hours at 37° C. The reaction was quenched with the addition of SDS to a final concentration of 0.1% and then 100 μl of the reaction mixture was transferred to a capture ELISA plate and incubated overnight at 4° C. Detection of the cleavage product was performed using a standard sandwich ELISA assay and quantified using a six point standard curve.
As usually defined, the IC50 is the point on the concentration scale where inhibition reaches its midpoint. For `O=S(=O)(c1ccc(C(F)(F)F)nc1)N1C2Cc3[nH]ncc3C1c1cccc(Cl)c12` (stereo not drawn) [compound 229], the half-inhibitory concentration (IC50) lay within 100 to 499 nM.
With `O=C1CCCN1c1ccc(C2CC3Cc4n[nH]cc4C(C2)N3S(=O)(=O)c2ccc(C(F)(F)F)cc2)cc1` (stereo not drawn) [compound 141], the IC50 was less than 100 nM.
For the molecule `O=S(=O)(c1ccc(C(F)(F)F)nc1)N1[C@@H]2c3cn[nH]c3[C@H](F)[C@H]1c1cccc(F)c12` [compound 268], the IC50 was more than 1000 nM.
As for `Cn1ncc(C2CC3Cc4[nH]ncc4C(C2)N3S(=O)(=O)c2ccc(Cl)cc2)n1` (stereo not drawn) [compound 140], the half-inhibitory concentration (IC50) was 100 to 499 nM.
Same read-out and setting: in the case of `O=S(=O)(c1ccc(C(F)(F)F)nc1)N1C2Cc3[nH]ncc3C1c1ccc(Cl)cc12` (single isomer, unassigned) [compound 223] it was 500 to 999 nM; in that of `O=S(=O)(c1ccc(C(F)(F)F)cc1)N1C2Cc3[nH]ncc3C1c1c2ccc2ccccc12` (stereo not drawn) [compound 170], less than 100 nM.
Same read-out and setting: to `O=S(=O)(c1ccc(C(F)(F)F)nc1)N1C2Cc3n[nH]cc3C1c1cccc(F)c12` (single isomer, unassigned) [compound 185] belongs less than 100 nM; to `O=S(=O)(c1ccc(C(F)(F)F)nc1)N1C2Cc3[nH]ncc3C1c1cc(O)ccc12` (racemic) [compound 225], less than 100 nM; to `O=S(=O)(c1ccc(C(F)(F)F)nc1)N1C2Cc3n[nH]cc3C1c1cccc(F)c12` (single isomer, unassigned) [compound 184], 500 to 999 nM.
Still for that read-out and setting: in the case of `O=S(=O)(c1ccc(C(F)(F)F)cc1)N1C2Cc3cccc(F)c3C1Cc1n[nH]cc12` (racemic) [compound 181] it was less than 100 nM; in that of `O=S(=O)(c1ccc(C(F)(F)F)cc1)N1C2Cc3[nH]ncc3C1CC(c1cccc(-n3ccnc3)c1)C2` (stereo not drawn) [compound 132], less than 100 nM; in that of `O=S(=O)(c1ccc(C(F)(F)F)nc1)N1C2Cc3[nH]ncc3C1c1cc(F)ccc12` (racemic) [compound 176], less than 100 nM.
Take `O=S(=O)(c1ccc(C(F)(F)F)nc1)N1C2Cc3[nH]ncc3C1c1cccc(Cl)c12` (stereo not drawn) [compound 228]: the IC50 was less than 100 nM.
With `O=C1c2[nH]ncc2C2c3c(F)cccc3C1N2S(=O)(=O)c1ccc(Cl)cc1` (stereo not drawn) [compound 236], the concentration for half-maximal inhibition (IC50) was less than 100 nM.
Still for that read-out and setting: in the case of `O=S(=O)(c1ccc(C(F)(F)F)cc1)N1C2Cc3[nH]ncc3C1c1cccc(-c3cccc(C(F)(F)F)c3)c1C2` (racemic) [compound 178] it was less than 100 nM.
The same measure, in the same setting: in the case of `COC(=O)c1ccc2c(c1)C1c3cn[nH]c3CC2N1S(=O)(=O)c1ccc(C(F)(F)F)nc1` (racemic) [compound 194] it was more than 1000 nM.
In the case of `O=S(=O)(c1ccc(C(F)(F)F)nc1)N1C2Cc3cccc(Br)c3[C@@H]1Cc1n[nH]cc12` [compound 212], the IC50 was less than 100 nM.
Still for that read-out and setting: to `O=S(=O)(c1ccc(C(F)(F)F)cc1)N1C2Cc3[nH]ncc3C1c1cccc(-c3ccc(F)cc3)c1C2` (racemic) [compound 162] belongs less than 100 nM.
On the same count and under the same terms, to `O=S(=O)(c1ccc(C(F)(F)F)nc1)N1C2Cc3n[nH]cc3C1c1c(F)ccc(F)c12` (stereo not drawn) [compound 131] belongs less than 100 nM.
Same read-out and setting: in the case of `Cc1cc(F)cc2c1C1c3c[nH]nc3CC2N1S(=O)(=O)c1ccc(C(F)(F)F)nc1` (stereo not drawn) [compound 159] it was less than 100 nM.
In the case of `O=S(=O)(c1ccc(Cl)cc1)N1C2Cc3[nH]ncc3C1c1c(F)cccc12` (racemic) [compound 209], the IC50 was less than 100 nM.
Still for that read-out and setting: to `O=S(=O)(c1ccc(C(F)(F)F)nc1)N1C2Cc3[nH]ncc3C1c1cccc(C3CC3)c12` (racemic) [compound 270] belongs less than 100 nM; to `O=C1c2[nH]ncc2C2c3c(F)cccc3C1N2S(=O)(=O)c1ccc(C(F)(F)F)nc1` (stereo not drawn) [compound 161], less than 100 nM; to `O=S(=O)(c1ccc(C(F)(F)F)nc1)N1C2c3c[nH]nc3[C@@H](O)C1c1c(F)cccc12` (stereo partly drawn) [compound 240], 100 to 499 nM.
Turning to `O=S(=O)(c1ccc(C(F)(F)F)nc1)N1C2Cc3[nH]ncc3C1c1cccc(CF)c12` (racemic) [compound 257], the IC50 is less than 100 nM.
Regarding `O=S(=O)(c1ccc(C(F)(F)F)nc1)N1C2Cc3cccc(Br)c3C1Cc1[nH]ncc12` (stereo not drawn) [compound 213], the IC50 was in the range of 100 to 499 nM.
On the same count and under the same terms, in the case of `O=S(=O)(c1ccc(C(F)(F)F)cc1)N1C2Cc3[nH]ncc3C1c1cccnc12` (stereo not drawn) [compound 100] it was less than 100 nM.
On the same count and under the same terms, in the case of `O=S(=O)(c1ccc(C(F)(F)F)nc1)N1C2Cc3n[nH]cc3C1c1cc(F)c(F)cc12` (racemic) [compound 105] it was less than 100 nM.
Take `O=S(=O)(c1ccc(C(F)(F)F)nc1)N1C2Cc3c(C4CC4)cccc3C1Cc1n[nH]cc12` (stereo not drawn) [compound 135]: the IC50 is less than 100 nM.
Consider `O=S(=O)(c1ccc(C(F)(F)F)cc1)N1C2Cc3n[nH]cc3C1CC(c1ccc(Br)cc1)C2` (stereo not drawn) [compound 106], for which the IC50 is less than 100 nM.
As to `O=S(=O)(c1ccc(C(F)(F)F)cc1)N1C2c3ccccc3C1C(F)(F)c1[nH]ncc12` (racemic) [compound 74], the IC50 was less than 100 nM.
With `O=C1c2n[nH]cc2C2c3cc(F)c(F)cc3C1N2S(=O)(=O)c1ccc(C(F)(F)F)cc1` (stereo not drawn) [compound 69], the IC50 was less than 100 nM.
The same measure, in the same setting: in the case of `O=S(=O)(c1ccc(C(F)(F)F)nc1)N1C2Cc3[nH]ncc3C1c1ccc(Cl)cc12` (single isomer, unassigned) [compound 224] it was less than 100 nM.
Take `N#Cc1ccc2c(c1)C1Cc3n[nH]cc3C2N1S(=O)(=O)c1ccc(C(F)(F)F)nc1` (single isomer, unassigned) [compound 172]: the IC50 is more than 1000 nM.
Same read-out and setting: in the case of `O=S(=O)(c1ccc(C(F)(F)F)nc1)N1C2Cc3n[nH]cc3C1c1cc(F)c(F)cc12` (single isomer, unassigned) [compound 110] it was more than 1000 nM; in that of `O=S(=O)(c1ccc(C(F)(F)F)cc1)N1C2c3c[nH]nc3C(F)(F)C1c1cccc(F)c12` (stereo not drawn) [compound 127], less than 100 nM; in that of `O=S(=O)(c1ccc(C(F)(F)F)nc1)N1C2Cc3[nH]ncc3C1c1cc(-c3ccc(F)cc3)ccc12` (single isomer, unassigned) [compound 244], more than 1000 nM.
The same measure, in the same setting: in the case of `O=C1c2n[nH]cc2C2c3cccc(F)c3C1N2S(=O)(=O)c1ccc(C(F)(F)F)cc1` (stereo not drawn) [compound 104] it was less than 100 nM.
Same read-out and setting: to `O=S(=O)(c1ccc(C(F)(F)F)nc1)N1C2Cc3[nH]ncc3C1c1ccccc12` (stereo not drawn) [compound 197] belongs less than 100 nM; to `O=S(=O)(c1ccc(C(F)(F)F)cc1)N1C2Cc3[nH]ncc3C1c1ccc(C(F)(F)F)cc12` (racemic) [compound 156], less than 100 nM; to `O=C1c2[nH]ncc2C2c3cccc(Cl)c3C1N2S(=O)(=O)c1ccc(C(F)(F)F)nc1` (racemic) [compound 264], less than 100 nM.
Turning to `O=C1c2[nH]ncc2C2c3cccc(F)c3C1N2S(=O)(=O)c1ccc(C(F)(F)F)nc1` (single isomer, unassigned) [compound 192], the IC50 is less than 100 nM.
On the same count and under the same terms, to `O=S(=O)(c1ccc(C(F)(F)F)nc1)N1C2Cc3[nH]ncc3C1c1cc(-c3ccc(F)cc3)ccc12` (single isomer, unassigned) [compound 245] belongs 100 to 499 nM.
The same measure, in the same setting: in the case of `O=C(O)COCCNc1ccc(C2CC3Cc4[nH]ncc4C(C2)N3S(=O)(=O)c2ccc(C(F)(F)F)cc2)cc1` (racemic) [compound 145] it was less than 100 nM; in that of `O=S(=O)(c1ccc(C(F)(F)F)nc1)N1C2Cc3[nH]ncc3C1c1c(Cl)cccc12` (single isomer, unassigned) [compound 233], less than 100 nM.
In the case of `N#Cc1ccc2c(c1)C1Cc3n[nH]cc3C2N1S(=O)(=O)c1ccc(C(F)(F)F)nc1` (single isomer, unassigned) [compound 174], the IC50 is less than 100 nM.
On the same count and under the same terms, in the case of `Cn1nncc1C1CC2Cc3[nH]ncc3C(C1)N2S(=O)(=O)c1ccc(Cl)cc1` (racemic) [compound 136] it was less than 100 nM.

The same assay, now with this note: numeric bounds given instead of class symbols; assay described in Example A; read-out: γAPP IC50.
In the case of `O=S(=O)(c1ccc(C(F)(F)F)nc1)N1C2Cc3[nH]ncc3C1c1c(-c3ccc(F)cc3)cccc12` (racemic) [compound 273], the IC50 is more than 100 nM.

Staying with this assay, now noted: γAPP IC50 (nM), class symbols; assay described in Example A.
`O=S(=O)(c1ccc(C(F)(F)F)nc1)N1C2Cc3n[nH]cc3C1c1c(F)cccc12` (stereo not drawn) [compound 130]: the IC50 was less than 100 nM.
Take `O=S(=O)(c1ccc(C(F)(F)F)nc1)N1C2Cc3n[nH]cc3C1c1ncsc12` (stereo not drawn) [compound 189]: the IC50 was 100 to 499 nM.
Same read-out and setting: to `O=S(=O)(c1ccc(C(F)(F)F)nc1)N1C2Cc3[nH]ncc3C1c1ncc(F)cc12` (single isomer, unassigned) [compound 259] belongs more than 1000 nM; to `Cn1ncc2c1C1Cc3[nH]ncc3C2N1S(=O)(=O)c1ccc(C(F)(F)F)nc1` (racemic) [compound 204], less than 100 nM; to `O=S(=O)(c1ccc(C(F)(F)F)nc1)N1C2Cc3[nH]ncc3C1c1ncc(F)cc12` (racemic) [compound 258], less than 100 nM.
On to `O=S(=O)(c1ccc(C(F)(F)F)cc1)N1C2Cc3n[nH]cc3C1c1c(F)cccc12` (single isomer, unassigned) [compound 114], for which the IC50 was in the range of 500 to 999 nM.
